Measurements reported in patent EP0297523A2, “Process for the preparation of elaiophyline and the use thereof” (HOECHST AKTIENGESELLSCHAFT, priority 1987, dated 1989).

Key:
[1] = tested on: Trichostrongylus colubriformis; assay: Anthelmintic effect in artificially infected lambs (small intestine nematodes), coproscopy and necropsy; type: in vivo; details: up to 14 days after application
Protocol: (§1) Die anthelminthische Wirkung vom Elaiophylin wurde an Lämmern mit 30 - 40 kg Körpergewicht untersucht. Dazu wurden die Lämmer artifiziell mit Infektionsstadien von Labmagen- (Haemonchus contortus) und Dünndarm-(Trichostrongylus colubriformis) Nematoden infiziert. Nach Abschluß der Entwicklungszeit (Präpatenzperiode) der Nematoden erfolgte die Applikation von Elaiophylin in Dosierungen von 2,5, 5,0 und 10,0 mg/kg (p.o.) bzw. 2,5 mg/kg (subcutan).
(§2) Durch koproskopische Untersuchungen vor und bis zu 14 Tagen nach der Applikation des Elaiophylins und anschließende Sektion mit helminthologischer Aufarbeitung wurde die prozentuale Reduktion der Schaf-Nematoden ermittelt (s. Tab. 1). Tabelle 1

[2] = tested on: Haemonchus contortus; assay: Anthelmintic effect in artificially infected lambs (abomasal nematodes), coproscopy and necropsy; type: in vivo; details: up to 14 days after application
Protocol: as §1, §2

CC[C@@H]1[C@@H](C)O[C@@](O)([C@@H](C)[C@H](O)[C@H](C)[C@H]2OC(=O)/C=C/C=C/[C@H](C)[C@@H]([C@@H](C)[C@@H](O)[C@H](C)[C@@]3(O)C[C@@H](O[C@H]4C[C@H](O)[C@H](O)[C@H](C)O4)[C@H](CC)[C@@H](C)O3)OC(=O)/C=C/C=C/[C@@H]2C)C[C@H]1O[C@H]1C[C@H](O)[C@H](O)[C@H](C)O1 [Elaiophylin]
proz. Reduktion der Nematoden T. colubriformis ([1]; lambs 30 - 40 kg, 2,5 mg p.o.): 28,4% | proz. Reduktion der Nematoden T. colubriformis ([1]; lambs 30 - 40 kg, 2,5 mg s.c.): 35,1% | proz. Reduktion der Nematoden T. colubriformis ([1]; lambs 30 - 40 kg, 5,0 mg p.o.): 73,8% | proz. Reduktion der Nematoden T. colubriformis ([1]; lambs 30 - 40 kg, 10,0 mg p.o.): 73,8% | proz. Reduktion der Nematoden H. contortus ([2]; lambs 30 - 40 kg, 2,5 mg p.o.): 44,6% | proz. Reduktion der Nematoden H. contortus ([2]; lambs 30 - 40 kg, 2,5 mg s.c.): 46,5% | proz. Reduktion der Nematoden H. contortus ([2]; lambs 30 - 40 kg, 5,0 mg p.o.): 89,3% | proz. Reduktion der Nematoden H. contortus ([2]; lambs 30 - 40 kg, 10,0 mg p.o.): 85,0%
